{"source": "patent US20120065179A1", "about": "“PRODRUG COMPRISING BETA-KETO CARBOXYLIC ACID, BETA-KETO CARBOXYLIC ACID SALT OR BETA-KETO CARBOXYLIC ACID ESTER FOR DRUG DELIVERY” (YKI, Ytemiska Institutet AB, priority 2009, published 2012)", "key": {"[1]": {"assay": "Aqueous solubility of sodium beta-keto salt prodrug of Nabumetone (Example 13b)", "type": "physicochemical", "experimental": "12.1 mg of the of ethyl-5-(6-methoxy-2-naphthyl)-beta-keto-pentanoate product prepared and purified as in Example 8 was mixed with 25 mL of a 0.5 M aqueous solution NaOH and homogenised on a vortex mixer. […] 15 minutes after preparation of the sample, the sample was transferred to an oil bath set at 37° C. with continuous gentle magnetic stirring, and kept there for 3.5 hours. Crystalline flakes remained in the sample at the end of the 3.5 hours heat-treatment, and the sample was thereafter centrifuged and the clear liquid above the sedimented crystals was analysed by HPLC as described above.\nAfter storage around one hour at room temperature a fraction of the sample was then filtered twice through a 0.2 μm filter (Whatman, 0.2 μm PS) fitted to a syringe to give a clear solution. 200 μL of this filtered solution was transferred, in a tightly closed vessel, to an oil bath at 95° C. and kept at this temperature for about 5 hours to bring about quantitative decarboxylation of the labile, dissolved beta-keto carboxylic salt prodrug derivative of Nabumetone.\nThe heated sample was then mixed with 35 mL of mobile phase (see Example 1) whereby a few solid crystals (comprising Nabumetone) was seen to not dissolve. In order to assure a correct sampling for HPLC analysis, 5 mL of the 35 mL sample was filtered through a 0.2 μm filter, after the whole 35 mL sample had been pH adjusted to 4.21 by 300 μL 0.1 M HCl+100 μL 1 M HCl, to assure that the pH of the sample was close to the pH of the mobile phase itself (pH 4.30). The filtered solution was thereafter analysed by HPLC and found to contain 0.777 mg Nabumetone per liter. If recalculated to the corresponding concentration of nabumetone equivalents in the form of the beta-keto salt prodrug present in dissolved form in the filtered 200 μl sample that was subsequently heat-treated to form Nabumetone above, the obtained concentration corresponds to a Nabumetone concentration of 136.7 mg Nabumetone per liter in the clear aqueous solution, at room temperature, before the heat-treatment at 95° C."}, "[2]": {"assay": "Sustained release of Nabumetone from beta-keto sodium salt prodrug in phosphate buffer at blood pH and 37° C.", "type": "physicochemical", "conditions": "phosphate buffer pH about 7.4, 37° C.", "experimental": "20.91 mg of the product synthesised as described in Example 8 (however in this case not purified by the chromatographic step in Example 8) was mixed with 1 ml 0.5 M NaOH at room temperature, whereby a portion of the sample was dissolved. After 30 minutes the mixture was placed in an oven at 37° C., and 10 μl samples was taken at regular intervals, diluted with 1 ml mobile phase (as in Example 1), and analyzed by HPLC, using UV-detection at 240 nm. 3.0 hours after initiation of the saponification reaction, the precursor (retention time 4.6 min) could no longer be detected, and the precursor peak was replaced by a peak from the intermediary beta-keto salt prodrug (retention time 2.3 minutes). At this point in time, a solution of 9 ml H2O and 0.0762 g NaH2PO4 was added to the sample, in order to create a NaH2PO4/Na2HPO4 pH buffer by neutralization of the NaOH remaining in the sample. […] The sample was again placed in the oven at 37° C. and the decarboxylation of the beta-keto salt in solution, gradually giving the commercially available drug Nabumetone, was followed by HPLC by taking 100 μl samples at regular intervals and diluting them with 1 ml mobile phase (see Example 1 above) before injection on the HPLC. It can be seen from the data that Nabumetone was continuously released into the solution via the spontaneous, non-enzymatic decarboxylation of the dissolved prodrug sodium salt, over a period of more than 120 hours. The half-life of the prodrug was estimated to be about 70 hours in this medium and under the conditions used."}, "[3]": {"assay": "Sustained release of acetophenone in vitro in model blood electrolyte solution at 37° C.", "type": "physicochemical", "conditions": "formed from sodium benzoyl acetate, model blood electrolyte solution pH 7.4", "experimental": "A 0.2 M solution of ethyl benzoyl acetate (90%, Sigma Aldrich) in 0.5 M NaOH (aq) was prepared at room temperature and stirred for typically 5-24 hours, still at room temperature. After this time a major part of the ethyl benzoyl acetate had been transformed into dissolved sodium benzoyl acetate, as evidenced by monitoring the reaction by analysis of samples by reversed phase HPLC. Some acetophenone and remaining ethyl benzoyl acetate were typically present in the samples, but in minor amounts. The method employed a C8 column with an inner diameter of 150×4.6 mm and 5 micron particles. The mobile phase consisted of 400 ml deionized water+600 ml acetonitrile+0.196 g H3PO4 (85%)+2.760 g NaH2PO4*H2O. The flow rate was set to 1.0 mL/min and UV detection at 254 nm was employed for analysis of the compounds ethylbenzoylacetate (precursor), benzoylacetate (model prodrug) and acetophenone (model drug).\nEthyl benzoyl acetate was saponified according to the description in Example 1, and after 7 hours a solution containing about 0.2 M of the sodium salt of benzoyl acetate was obtained."}, "[4]": {"conditions": "cited from earlier work"}, "[5]": {"conditions": "pig, 2 mM, pH 6.63"}}, "note": "Several values for one entry are separate records, joined by “and”; a condition that tells them apart may be missing. Equal values may be shown once. Read-outs that look alike come from different tables or passages of the source."}
{"molecule": "5-(6-methoxy-2-naphthyl)-beta-keto-pentanoate [Nabumetone beta-keto salt prodrug]", "values": [{"measurement": "Solubility (mg/L, as Nabumetone equivalents)", "setting": "[1]; clear aqueous solution (0.5 M NaOH) at room temperature, 0.2 μm filtered, before heat-treatment", "value": 136.7, "unit": "mg/L"}, {"measurement": "Area at retention time 2.3 minutes characteristic for detection of the beta-keto anion", "setting": "[1]; clear liquid after 3.5 h at 37° C. in 0.5 M NaOH, 200 μL diluted with 5.0 ml mobile phase", "value": 36218, "unit": "arbitrary units"}, {"measurement": "half-life of the prodrug (estimated)", "setting": "[2]", "value": "about 70 hours"}, {"measurement": "period over which Nabumetone was continuously released into the solution", "setting": "[2]", "value": "more than 120 hours"}, {"measurement": "Nabumetone beta-keto salt prodrug (HPLC area @ retention time 2.3 min)", "setting": "[2]; 3.25 h after initiation of saponification", "value": 28341}, {"measurement": "Nabumetone beta-keto salt prodrug (HPLC area @ retention time 2.3 min)", "setting": "[2]; 5.1 h after initiation of saponification", "value": 27144}, {"measurement": "Nabumetone beta-keto salt prodrug (HPLC area @ retention time 2.3 min)", "setting": "[2]; 21.45 h after initiation of saponification", "value": 22542}, {"measurement": "Nabumetone beta-keto salt prodrug (HPLC area @ retention time 2.3 min)", "setting": "[2]; 24.25 h after initiation of saponification", "value": "24102 and 21914"}, {"measurement": "Nabumetone beta-keto salt prodrug (HPLC area @ retention time 2.3 min)", "setting": "[2]; 28.15 h after initiation of saponification", "value": 19536}, {"measurement": "Nabumetone beta-keto salt prodrug (HPLC area @ retention time 2.3 min)", "setting": "[2]; 45.4 h after initiation of saponification", "value": 18202}, {"measurement": "Nabumetone beta-keto salt prodrug (HPLC area @ retention time 2.3 min)", "setting": "[2]; 50 h after initiation of saponification", "value": 18123}, {"measurement": "Nabumetone beta-keto salt prodrug (HPLC area @ retention time 2.3 min)", "setting": "[2]; 78 h after initiation of saponification", "value": 9528}, {"measurement": "Nabumetone beta-keto salt prodrug (HPLC area @ retention time 2.3 min)", "setting": "[2]; 117 h after initiation of saponification", "value": 9760}, {"measurement": "Nabumetone beta-keto salt prodrug (HPLC area @ retention time 2.3 min)", "setting": "[2]; 194 h after initiation of saponification", "value": 1827}]}
{"molecule": "CC(=O)c1ccccc1", "note": "[acetophenone]", "values": [{"measurement": "Concentration of acetophenone (model drug) in sample", "setting": "[3]; Time @ 37° C. 0.42", "value": 160, "unit": "µM"}, {"measurement": "Concentration of acetophenone (model drug) in sample", "setting": "[3]; Time @ 37° C. 2.25", "value": 290, "unit": "µM"}, {"measurement": "Concentration of acetophenone (model drug) in sample", "setting": "[3]; Time @ 37° C. 3.17", "value": 380, "unit": "µM"}, {"measurement": "Concentration of acetophenone (model drug) in sample", "setting": "[3]; Time @ 37° C. 4.17", "value": 480, "unit": "µM"}, {"measurement": "Concentration of acetophenone (model drug) in sample", "setting": "[3]; Time @ 37° C. 6.17", "value": 400, "unit": "µM"}, {"measurement": "Concentration of acetophenone (model drug) in sample", "setting": "[3]; Time @ 37° C. 8.25", "value": 630, "unit": "µM"}, {"measurement": "Concentration of acetophenone (model drug) in sample", "setting": "[3]; Time @ 37° C. 10.17", "value": 730, "unit": "µM"}, {"measurement": "Concentration of acetophenone (model drug) in sample", "setting": "[3]; Time @ 37° C. 12.17", "value": 730, "unit": "µM"}, {"measurement": "Concentration of acetophenone (model drug) in sample", "setting": "[3]; Time @ 37° C. 13.92", "value": 900, "unit": "µM"}, {"measurement": "Concentration of acetophenone (model drug) in sample", "setting": "[3]; Time @ 37° C. 17.92", "value": 920, "unit": "µM"}, {"measurement": "Concentration of acetophenone (model drug) in sample", "setting": "[3]; Time @ 37° C. 21.17", "value": 1080, "unit": "µM"}, {"measurement": "Concentration of acetophenone (model drug) in sample", "setting": "[3]; Time @ 37° C. 24.92", "value": 950, "unit": "µM"}, {"measurement": "Concentration of acetophenone (model drug) in sample", "setting": "[3]; Time @ 37° C. 31.33", "value": 1110, "unit": "µM"}, {"measurement": "Concentration of acetophenone (model drug) in sample", "setting": "[3]; Time @ 37° C. 48.75", "value": 1550, "unit": "µM"}, {"measurement": "Concentration of acetophenone (model drug) in sample", "setting": "[3]; Time @ 37° C. 76.33", "value": 1890, "unit": "µM"}, {"measurement": "Solubility", "setting": "[4]; tabulated solubility", "value": 46, "unit": "mM"}, {"measurement": "Acetophenone concentration", "setting": "[5]; 0.25 h", "value": 0.09, "unit": "mM"}, {"measurement": "Acetophenone concentration", "setting": "[5]; 1.33 h", "value": 0.32, "unit": "mM"}, {"measurement": "Acetophenone concentration", "setting": "[5]; 2.58 h", "value": 0.50, "unit": "mM"}, {"measurement": "Acetophenone concentration", "setting": "[5]; 4.75 h", "value": 0.866, "unit": "mM"}, {"measurement": "Acetophenone concentration", "setting": "[5]; 5.58 h", "value": 0.866, "unit": "mM"}, {"measurement": "Acetophenone concentration", "setting": "[5]; 6.58 h", "value": 0.921, "unit": "mM"}, {"measurement": "Acetophenone concentration", "setting": "[5]; 22.58 h", "value": 1.34, "unit": "mM"}, {"measurement": "Acetophenone concentration", "setting": "[5]; -0.17 h", "value": 0.07, "unit": "mM"}]}
{"molecule": "C[C@]12CC[C@H]3[C@@H](CCC4=CC(=O)CC[C@@]43C)[C@@H]1CC[C@@H]2O", "note": "[testosterone, (8R,9S,10R,13S,14S,17S)-17-hydroxy-10,13-dimethyl-1,2,6,7,8,9,11,12,14,15,16,17-dodecahydrocyclopenta[a]phenanthren-3-one]", "values": [{"measurement": "Solubility", "setting": "[4]; at 37° C., Okimotoa et al., 1999", "value": 39, "unit": "µg/mL"}]}
